Results on 1 compound are retold here after ChEMBL document CHEMBL1208667, “Permanent positive charge strongly influences DNA/RNA binding and antiproliferative activity of urea-phenanthridinium conjugates” (Eur J Med Chem, 2010).

SMILES strings stand for the structures. The source made the active and inactive calls. The rule behind the calls is not given here.

The first test deals with Nucleic Acid. The experiment in a line: Binding affinity to poly G-poly C RNA in sodium cacodylate buffer at pH 7 by fluorescence titration assay relative to control. It counts as nucleic-acid assay.
Settings: not given
Consider `Cc1c2cc(NC(=O)NCCNC(=O)Nc3ccc4c(c3)c(C)[n+](C)c3ccccc43)ccc2c2ccccc2[n+]1C.O=S(=O)([O-])O.O=S(=O)([O-])O`, for which the RFU was found to be 0.7.

Another test has as its system Nucleic Acid. The experiment in a line: Binding affinity to […] assessed as melting temperature at compound to DNA molar ratio of 0.3 at pH 5 by thermal denaturation assay. It counts as nucleic-acid assay.
Settings: not given
Take `Cc1c2cc(NC(=O)NCCNC(=O)Nc3ccc4c(c3)c(C)[n+](C)c3ccccc43)ccc2c2ccccc2[n+]1C.O=S(=O)([O-])O.O=S(=O)([O-])O`: the Tm (in general, the temperature at the midpoint of the melting transition) was found to be 60.7 °C.

In the next test the test system is Nucleic Acid. The experiment in a line: Binding affinity to poly G-poly C RNA in sodium cacodylate buffer at pH 7 by fluorescence titration assay.
Settings: not given
It counts as nucleic-acid assay.
Consider `Cc1c2cc(NC(=O)NCCNC(=O)Nc3ccc4c(c3)c(C)[n+](C)c3ccccc43)ccc2c2ccccc2[n+]1C.O=S(=O)([O-])O.O=S(=O)([O-])O`, for which the log Ks came to 5.4.

For the next test, the system named is Calf thymus DNA. Put plainly: Binding affinity to calf thymus DNA assessed as melting temperature at compound to DNA molar ratio of 0.3 at pH 5 by thermal denaturation assay. Type of test: nucleic-acid assay. Particulars: Bos taurus.
In the case of `Cc1c2cc(NC(=O)NCCNC(=O)Nc3ccc4c(c3)c(C)[n+](C)c3ccccc43)ccc2c2ccccc2[n+]1C.O=S(=O)([O-])O.O=S(=O)([O-])O`, the Tm came to 75.6 °C.

The subject of a further test is Nucleic Acid. The experiment in a line: Binding affinity to […] assessed as change in melting temperature at compound to DNA molar ratio of 0.2 at pH 5 by thermal denaturation assay. Type of test: nucleic-acid assay.
Settings: not given
`Cc1c2cc(NC(=O)NCCNC(=O)Nc3ccc4c(c3)c(C)[n+](C)c3ccccc43)ccc2c2ccccc2[n+]1C.O=S(=O)([O-])O.O=S(=O)([O-])O`: the ΔTm (as a rule, the change in melting temperature against a reference sample) is 9.4 °C.

For the next test, the system named is Nucleic Acid. Put plainly: Binding affinity to UMP in citric acid buffer at pH 5 by fluorescence titration assay relative to control. It counts as nucleic-acid assay.
Settings: not given
As to `Cc1c2cc(NC(=O)NCCNC(=O)Nc3ccc4c(c3)c(C)[n+](C)c3ccccc43)ccc2c2ccccc2[n+]1C.O=S(=O)([O-])O.O=S(=O)([O-])O`, the RFU is -13.5.

The next test has as its system Nucleic Acid. The experiment in a line: Binding affinity to […] assessed as change in melting temperature at compound to DNA molar ratio of 0.3 at pH 7 by thermal denaturation assay.
Settings: not given
It counts as nucleic-acid assay.
Regarding `Cc1c2cc(NC(=O)NCCNC(=O)Nc3ccc4c(c3)c(C)[n+](C)c3ccccc43)ccc2c2ccccc2[n+]1C.O=S(=O)([O-])O.O=S(=O)([O-])O`, the ΔTm was determined as 6.1 °C.

The test system of the next test is Nucleic Acid. The experiment in a line: Binding affinity to poly dA-poly dT RNA in citric acid buffer at pH 5 by fluorescence titration assay.
Settings: not given
It counts as nucleic-acid assay.
In turn, `Cc1c2cc(NC(=O)NCCNC(=O)Nc3ccc4c(c3)c(C)[n+](C)c3ccccc43)ccc2c2ccccc2[n+]1C.O=S(=O)([O-])O.O=S(=O)([O-])O` registered a log Ks of 6.1.

Another test concerns Caco-2. Put plainly: Cytotoxicity against human Caco-2 cells at 100 uM after 72 hrs by MTT assay. It counts as functional, cell-based.
Settings: not given
As to `Cc1c2cc(NC(=O)NCCNC(=O)Nc3ccc4c(c3)c(C)[n+](C)c3ccccc43)ccc2c2ccccc2[n+]1C.O=S(=O)([O-])O.O=S(=O)([O-])O`, the outcome was inactive.

The next test concerns Nucleic Acid. The experiment in a line: Binding affinity to poly A-poly U RNA assessed as melting temperature at compound to DNA molar ratio of 0.2 at pH 5 by thermal denaturation assay. Type of test: nucleic-acid assay.
Settings: not given
Consider `Cc1c2cc(NC(=O)NCCNC(=O)Nc3ccc4c(c3)c(C)[n+](C)c3ccccc43)ccc2c2ccccc2[n+]1C.O=S(=O)([O-])O.O=S(=O)([O-])O`, for which the Tm was determined as 84.1 °C.

In another test the test system is Calf thymus DNA. The experiment in a line: Binding affinity to calf thymus DNA in citric acid buffer at pH 5 by fluorescence titration assay. Particulars: Bos taurus. Type of test: nucleic-acid assay.
Consider `Cc1c2cc(NC(=O)NCCNC(=O)Nc3ccc4c(c3)c(C)[n+](C)c3ccccc43)ccc2c2ccccc2[n+]1C.O=S(=O)([O-])O.O=S(=O)([O-])O`, for which the log Ks was 6.4.

The test system of another test is Nucleic Acid. The experiment in a line: Binding affinity to poly A-poly U RNA assessed as change in melting temperature at compound to DNA molar ratio of 0.2 at pH 5 by thermal denaturation assay. It counts as nucleic-acid assay.
Settings: not given
As to `Cc1c2cc(NC(=O)NCCNC(=O)Nc3ccc4c(c3)c(C)[n+](C)c3ccccc43)ccc2c2ccccc2[n+]1C.O=S(=O)([O-])O.O=S(=O)([O-])O`, the ΔTm was 1.5 °C.

The test system of a further test is Nucleic Acid. Put plainly: Binding affinity to poly A-poly U RNA in sodium cacodylate buffer at pH 7 by fluorescence titration assay. It counts as nucleic-acid assay.
Settings: not given
The compound `Cc1c2cc(NC(=O)NCCNC(=O)Nc3ccc4c(c3)c(C)[n+](C)c3ccccc43)ccc2c2ccccc2[n+]1C.O=S(=O)([O-])O.O=S(=O)([O-])O` yielded a log Ks of 5.3.

A further test has as its system Calf thymus DNA. The experiment in a line: Binding affinity to calf thymus DNA assessed as melting temperature at compound to DNA molar ratio of 0.2 at pH 7 by thermal denaturation assay. The settings on record: Bos taurus. Type of test: nucleic-acid assay.
As for `Cc1c2cc(NC(=O)NCCNC(=O)Nc3ccc4c(c3)c(C)[n+](C)c3ccccc43)ccc2c2ccccc2[n+]1C.O=S(=O)([O-])O.O=S(=O)([O-])O`, the melting temperature (Tm) was 81.7 °C.

Another test deals with Calf thymus DNA. The experiment in a line: Binding affinity to calf thymus DNA assessed as change in melting temperature at compound to DNA molar ratio of 0.2 at pH 5 by thermal denaturation assay. Particulars: Bos taurus. Type of test: nucleic-acid assay.
As to `Cc1c2cc(NC(=O)NCCNC(=O)Nc3ccc4c(c3)c(C)[n+](C)c3ccccc43)ccc2c2ccccc2[n+]1C.O=S(=O)([O-])O.O=S(=O)([O-])O`, the ΔTm was 12.1 °C.

For another test, the system named is Nucleic Acid. Put plainly: Binding affinity to CMP in citric acid buffer at pH 5 by fluorescence titration assay relative to control. It counts as nucleic-acid assay.
Settings: not given
`Cc1c2cc(NC(=O)NCCNC(=O)Nc3ccc4c(c3)c(C)[n+](C)c3ccccc43)ccc2c2ccccc2[n+]1C.O=S(=O)([O-])O.O=S(=O)([O-])O` showed an RFU of 0.3.

A further test has as its system HEp-2. Put plainly: Cytotoxicity against human Hep2 cells at 0.1 to 100 uM after 72 hrs by MTT assay. Type of test: functional, cell-based.
Settings: not given
With `Cc1c2cc(NC(=O)NCCNC(=O)Nc3ccc4c(c3)c(C)[n+](C)c3ccccc43)ccc2c2ccccc2[n+]1C.O=S(=O)([O-])O.O=S(=O)([O-])O`, the outcome was Active.

In the next test the test system is Nucleic Acid. The experiment in a line: Binding affinity to poly A-poly U RNA assessed as melting temperature at compound to DNA molar ratio of 0.2 at pH 7 by thermal denaturation assay.
Settings: not given
It counts as nucleic-acid assay.
For the compound `Cc1c2cc(NC(=O)NCCNC(=O)Nc3ccc4c(c3)c(C)[n+](C)c3ccccc43)ccc2c2ccccc2[n+]1C.O=S(=O)([O-])O.O=S(=O)([O-])O`, the Tm amounted to 51.5 °C.

The subject of another test is Nucleic Acid. The experiment in a line: Binding affinity to CMP in sodium cacodylate buffer at pH 7 by fluorescence titration assay relative to control. It counts as nucleic-acid assay.
Settings: not given
The compound `Cc1c2cc(NC(=O)NCCNC(=O)Nc3ccc4c(c3)c(C)[n+](C)c3ccccc43)ccc2c2ccccc2[n+]1C.O=S(=O)([O-])O.O=S(=O)([O-])O` gave an RFU of 47.7.

For a further test, the system named is Nucleic Acid. The experiment in a line: Binding affinity to poly A-poly U RNA at compound to DNA molar ratio of 0.1 to 0.5 at pH 5 by circular dichroism. It counts as nucleic-acid assay.
Settings: not given
For orientation: Circular dichroism is widely used to follow secondary structure.
On to `Cc1c2cc(NC(=O)NCCNC(=O)Nc3ccc4c(c3)c(C)[n+](C)c3ccccc43)ccc2c2ccccc2[n+]1C.O=S(=O)([O-])O.O=S(=O)([O-])O`, for which the result was Active.

In a further test the test system is Nucleic Acid. The experiment in a line: Binding affinity to poly A-poly U RNA at compound to DNA molar ratio of 0.1 to 0.5 at pH 7 by circular dichroism. It counts as nucleic-acid assay.
Settings: not given
In the case of `Cc1c2cc(NC(=O)NCCNC(=O)Nc3ccc4c(c3)c(C)[n+](C)c3ccccc43)ccc2c2ccccc2[n+]1C.O=S(=O)([O-])O.O=S(=O)([O-])O`, the result was Active.

In a further test the test system is Nucleic Acid. Put plainly: Binding affinity to poly G-poly C RNA in citric acid buffer at pH 5 by fluorescence titration assay relative to control.
Settings: not given
It counts as nucleic-acid assay.
Turning to `Cc1c2cc(NC(=O)NCCNC(=O)Nc3ccc4c(c3)c(C)[n+](C)c3ccccc43)ccc2c2ccccc2[n+]1C.O=S(=O)([O-])O.O=S(=O)([O-])O`, the RFU is 0.
